Source: BindingDB's records for patent US11485738 (MIRATI THERAPEUTICS, INC., 2022)

Biological target: Histone-binding protein RBBP4/Polycomb protein EED/Polycomb protein SUZ12/Zinc finger protein AEBP2 (Human, UniProt O75530+Q09028+Q15022+Q6ZN18)
Test: Enzymatic Activity Assay

Histone-binding protein RBBP4/Polycomb protein EED/Polycomb protein SUZ12/Zinc finger protein AEBP2, sequence (O75530 whole entry): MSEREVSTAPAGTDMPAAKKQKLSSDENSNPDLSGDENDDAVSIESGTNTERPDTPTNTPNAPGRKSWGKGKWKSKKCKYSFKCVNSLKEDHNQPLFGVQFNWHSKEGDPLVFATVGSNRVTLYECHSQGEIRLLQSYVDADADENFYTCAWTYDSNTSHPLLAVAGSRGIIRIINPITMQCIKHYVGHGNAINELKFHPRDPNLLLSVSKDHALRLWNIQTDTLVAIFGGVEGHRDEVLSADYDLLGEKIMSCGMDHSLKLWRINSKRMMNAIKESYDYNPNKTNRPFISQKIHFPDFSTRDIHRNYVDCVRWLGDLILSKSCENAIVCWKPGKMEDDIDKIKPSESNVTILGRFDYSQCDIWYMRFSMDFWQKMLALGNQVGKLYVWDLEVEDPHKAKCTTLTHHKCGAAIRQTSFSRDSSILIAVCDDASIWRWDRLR
Histone-binding protein RBBP4/Polycomb protein EED/Polycomb protein SUZ12/Zinc finger protein AEBP2, sequence (Q15022 whole entry): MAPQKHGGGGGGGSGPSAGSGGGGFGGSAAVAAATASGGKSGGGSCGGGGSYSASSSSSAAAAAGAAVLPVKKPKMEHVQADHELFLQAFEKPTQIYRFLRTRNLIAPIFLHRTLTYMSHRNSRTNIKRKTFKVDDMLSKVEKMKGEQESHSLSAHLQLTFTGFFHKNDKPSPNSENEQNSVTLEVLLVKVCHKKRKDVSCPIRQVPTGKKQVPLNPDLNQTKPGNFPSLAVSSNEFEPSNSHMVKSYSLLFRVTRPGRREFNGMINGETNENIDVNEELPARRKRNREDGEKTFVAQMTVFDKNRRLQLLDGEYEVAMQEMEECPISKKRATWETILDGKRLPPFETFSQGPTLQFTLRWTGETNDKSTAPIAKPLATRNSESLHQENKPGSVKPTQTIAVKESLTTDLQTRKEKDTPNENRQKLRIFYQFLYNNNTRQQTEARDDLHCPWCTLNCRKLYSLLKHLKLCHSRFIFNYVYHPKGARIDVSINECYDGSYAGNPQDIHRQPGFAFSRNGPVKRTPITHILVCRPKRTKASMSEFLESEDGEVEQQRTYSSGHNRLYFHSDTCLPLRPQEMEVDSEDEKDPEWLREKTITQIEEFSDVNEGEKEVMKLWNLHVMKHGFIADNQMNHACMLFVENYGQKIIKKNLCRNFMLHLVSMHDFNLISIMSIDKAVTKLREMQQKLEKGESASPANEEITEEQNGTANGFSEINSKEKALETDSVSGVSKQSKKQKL
Histone-binding protein RBBP4/Polycomb protein EED/Polycomb protein SUZ12/Zinc finger protein AEBP2, sequence (Q6ZN18 whole entry): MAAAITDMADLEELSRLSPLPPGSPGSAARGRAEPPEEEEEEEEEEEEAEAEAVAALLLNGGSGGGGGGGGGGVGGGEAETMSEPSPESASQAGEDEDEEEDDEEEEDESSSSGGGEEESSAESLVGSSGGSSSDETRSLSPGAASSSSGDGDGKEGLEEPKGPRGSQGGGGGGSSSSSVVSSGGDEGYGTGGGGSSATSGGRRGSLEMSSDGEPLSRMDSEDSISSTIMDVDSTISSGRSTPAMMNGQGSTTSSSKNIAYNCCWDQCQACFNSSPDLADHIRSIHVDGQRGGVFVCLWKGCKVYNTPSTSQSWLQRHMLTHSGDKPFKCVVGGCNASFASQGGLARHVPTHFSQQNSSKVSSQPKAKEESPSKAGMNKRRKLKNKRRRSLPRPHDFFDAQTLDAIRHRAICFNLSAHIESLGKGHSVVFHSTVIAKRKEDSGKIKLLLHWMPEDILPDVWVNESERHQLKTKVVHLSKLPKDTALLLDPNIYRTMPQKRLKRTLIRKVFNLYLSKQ
Histone-binding protein RBBP4/Polycomb protein EED/Polycomb protein SUZ12/Zinc finger protein AEBP2, sequence (Q09028 whole entry): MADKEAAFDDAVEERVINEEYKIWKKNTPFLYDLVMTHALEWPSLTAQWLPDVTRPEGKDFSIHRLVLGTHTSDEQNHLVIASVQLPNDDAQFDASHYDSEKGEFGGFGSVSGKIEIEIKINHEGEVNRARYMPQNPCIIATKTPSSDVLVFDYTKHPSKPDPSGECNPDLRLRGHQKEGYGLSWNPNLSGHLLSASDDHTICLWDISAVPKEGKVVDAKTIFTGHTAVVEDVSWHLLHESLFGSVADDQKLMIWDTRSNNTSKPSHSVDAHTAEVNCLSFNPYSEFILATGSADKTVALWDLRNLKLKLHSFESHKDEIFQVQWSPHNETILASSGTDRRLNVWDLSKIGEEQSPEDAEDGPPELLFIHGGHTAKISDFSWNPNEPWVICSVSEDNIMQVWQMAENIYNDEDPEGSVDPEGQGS

IC50 [nM] | Compound
< 100 | Cc1nc(N2CCOCC2)ccc1-c1cnc(NCc2c(F)ccc3c2CCO3)n2cc(C#N)nc12 [US11485738, Example 56]
< 100 | Cc1cc(S(C)(=O)=O)ccc1-c1cnc(NCc2c(F)ccc3c2CCO3)n2cc(C#N)nc12 [US11485738, Example 87]
